Assay results as given in patent publication US20060057669A1, “Inactive transcription factor tif-ia and uses thereof” (priority 2002, published 2006).

Key:
Pol I transcription [1] = assay: In vitro transcription: TIF-IA mutants restoring rDNA transcription of nuclear extract from density-arrested FM3A cells; assay type: biochemical, murine
Experimental: (A) Transcriptional activity of TIF-IA mutants in vitro. FLAG-tagged wild-type TIF-IA and the indicated single or double point mutants were overexpressed in HEK293T cells, immunopurified, and 20 and 40 ng were assayed for their capability to restore rDNA transcriptional activity of nuclear extract from density-arrested FM3A cells. The amount and purity of TIF-IA were estimated on silver-stained SDS-polyacrylamide gels and Western blots (data not shown).
(A) Transcriptional activity of TIF-IAS199A and TIF-IAS199D in vitro. FLAG-tagged wild-type TIF-IA and the indicated mutants were immunopurified from HEK293T cells, and 30 and 60 ng were assayed for their capability to restore transcriptional activity of nuclear extract from density-arrested FM3A cells. The amount and purity of TIF-IA were estimated on silver-stained SDS-polyacrylamide gels (data not shown).
(B) Transcriptional activity of TIF-IAS44A in vitro. FLAG-tagged wild-type TIF-IA and the indicated mutant were assayed for their transcriptional activity in vitro.
(§1) Nuclear extracts were prepared from exponentially growing (8×10^5 cells/ml), density-arrested or PD98059-treated (CN Bioscience, Bad Soden, Germany) 40 μM, 0.5 hr) or rapamycin-treated FM3A cells (ATCC, Manassas, USA). 25 μl assays contained 50 ng of template DNA (pMr600/EcoRI), 30 μg nuclear extract proteins and 12 mM Hepes-KOH, [pH8.0], 0.1 mM EDTA, 5 mM MgCl2, 80 mM KCl, 10 mM creatine phosphate, 12% (v/v) glycerol, 0.66 mM each of ATP, GTP and CTP, 0.01 mM UTP and 0.5 μCi [α-^32P]UTP (5000 Ci/mmol). After incubation for 60 min at 30° C., RNA was extracted and analyzed on non-denaturing 5% polyacrylamide gels
TIF-IA was immunopurified from untransfected NIH3T3 cells or from HEK293T cells overexpressing FLAG-tagged TIF-IA. 4×10^6 cells were lysed in 0.8 ml IP buffer (20 mM Tris-HCl [pH 7.4], 200 mM NaCl, 2 mM EDTA, 2 mM EGTA, 1% Triton X-100, 0.5 mM PMSF, 1 μg/ml aprotinin, 5 μg/ml leupeptin and 1 μg/ml pepstatin A), centrifuged at 10,000 g for 30 min, and the supernatants were incubated for 4 hr at 4° C. with either 10 μg anti-TIF-IA antibodies bound to 20 μl protein G-agarose or with anti-FLAG (M2) agarose (Sigma-Aldrich Corp., Missouri, USA). The immunocomplexes were successively washed with buffer AM (20 mM Tris-HCl [pH 8.0], 5 mM MgCl2, 0.1 mM EDTA, 20% glycerol) containing 400 and 100 mM KCl, respectively. The amount and purity of TIF-IA was estimated on silver-stained polyacrylamide gels and similar amounts of bead-bound TIF-IA were used in in vitro transcription assays. GST fusion proteins were expressed in E. coli BL21(DE3) and purified on Glutathione-Sepharose 4B according to the manufacturer's instructions.
To assess the functional relevance of S633 and S649 phosphorylation on transcriptional activity, the respective S→A and S→D single or double point mutants were purified from transfected cells and assayed for their capability to rescue transcription of extracts from density-arrested cells. […] Thus, phosphorylation of TIF-IA at S649 and S633 is required for transcriptional activity.
Phosphorylation of peptide a should inhibit TIF-IA activity, while phosphorylation of peptide b, e.g. S44, should augment TIF-IA activity.

TIF-IB/SL1 = assay: Co-immunoprecipitation of TIF-IB/SL1 with TIF-IA mutants from HEK293T cells; assay type: binding, human
Experimental: (§2) (B) A mutant that mimics phosphorylation of TIF-IA at S199 fails to interact with Pol I and TIF-IB. FLAG-tagged wild-type TIF-IA or the indicated point mutants were overexpressed in HEK293T cells and immunoprecipitated from cell lysates with anti-FLAG antibodies (M2 agarose). Co-precipitated Pol I and TIF-IB/SL1 were visualized on Western blots with anti-RPA116 and anti-TAFI110 antibodies.
(§3) Immunoprecipitations were carried out from human cells overexpressing FLAG-tagged TIF-IA. Cells were lysed in IP buffer, cleared by centrifugation at 10,000×g for 30 min, and the supernatants were incubated for 4 hr at 4° C. with anti-FLAG (M2) agarose (Sigma). To analyze the interaction of TIF-IA with TIF-IB/SL1, the immunoprecipitates were washed with IP buffer and TIF-IB/SL1 was visualized on immunoblots with α-TAFI110 antibodies. To monitor the interaction of TIF-IA with Pol I, the immunoprecipitates were washed with IP buffer containing 600 mM NaCl and Pol I was analyzed on Western blots using antibodies against the second largest subunit of Pol I (RPA116) or PAF67 (Seither et al., J. Biol. Chem. 382 (2001), 1163-1170).
(§4) Given the importance of mTOR-mediated alterations in the phosphorylation pattern on TIF-IA activity, one could predict that either phosphorylation of S199, dephosphorylation of S44 or both regulate the interaction of TIF-IA with the Pol I transcription apparatus. It was therefore examined whether the S→A or S→D point mutant(s) were capable of interacting with Pol I and/or TIF-IB/SL1. For this, TIF-IA was precipitated from cells overexpressing either FLAG-tagged wild-type TIF-IA or the respective S199 and S44 mutant(s), and co-precipitated Pol I and TIF-IB/SL1 were visualized on Western blots.

Pol I = assay: Co-immunoprecipitation of Pol I with TIF-IA mutants from HEK293T cells; assay type: binding, human
Experimental: as §2, §3, §4

Pol I transcription [2] = assay: In vitro transcription: TIF-IA mutants added to nuclear extract from exponentially growing FM3A cells; assay type: biochemical, murine; details: 20 and 40 ng added to 15 ug nuclear extract
Experimental: 20 and 40 ng of the indicated TIF-IA mutants were added to 15 ug nuclear extract from exponentially growing FM3A cells and rDNA transcription was assayed.
as §1
Given that phosphorylation of TIF-IA at serine 649 is essential for transcription, excess of TIF-IAS649A should impair Pol I transcription. To test this, we examined the effect of exogenous wild-type and mutant TIF-IA on transcriptional activity of extracts from exponentially growing cells.

HEK293T cells = assay: Quantitative fluorimetric viability assay with calcein-AM; assay type: cell-based; details: 24, 36, 48 and 60 hr after transfection; 2 μM calcein-AM
Experimental: (B) Quantitative fluorimetric viability assay with calcein-AM. HEK293T cells were transfected with TIF-IA or the indicated point mutants. […] Viable cells were measured 24, 36, 48 and 60 hr after transfection by incubation with […] calcein-AM. The gradual increase in fluorescence intensity was recorded with a fluorescence multi-well plate reader for 20 min with an excitation wavelength of 485 nm and an emission wavelength of 530 nm. The proliferation rate of mock-transfected cells and cells overexpressing TIF-IA is shown at the left. Plots show the accumulation of calcein fluorescence (arbitrary units) against time. Growth rates calculated from linear regression curves are shown at the right. Values are presented as the mean±SD from three independent experiments performed in duplicates.
Conversion of calcein-AM (calcein acetoxymethyl ester, (CN Bioscience GmbH, Bad Soden, Germany) to calcein was used to measure cell proliferation. 12 hr after transfection, HEK293T cells were seeded to 96-well micro-plates at 1×10^4 cells/well. After 24, 36, 48 and 60 hr, cells were washed with PBS, incubated with 2 μM calcein-AM, and the gradual increase in fluorescence intensity within the cells was recorded by a fluorescence multi-well plate reader (CytoFluor Series 4000/TC, PerSeptive Biosystems, (Applied Biosystems, Forster City, USA) for 20 min in 1 min intervals. Excitation wavelength used for measurements of fluorescence was 485 nm with a bandwidth of 20 nm; emission wavelength was 530 nm with a bandwidth of 25 nm. Under the experimental conditions used, there is a direct correlation between the accumulation ratio of intracellular calcein fluorescence and the number of viable cells. The data from three independent experiments were analyzed by Sigmaplot and expressed as the mean±standard deviation. For statistical analysis, student's t test was used. Differences with a P<0.01 were considered statistically significant.
Given the functional significance of ERK/RSK-directed TIF-IA phosphorylation on Pol I transcription, mutations that enhance or abrogate TIF-IA activity may have a positive or negative effect on cell growth. To test this, HEK293T cells were transfected with cDNAs encoding wild-type or mutant TIF-IA which harbor single or double point mutations at S649 and S633. The expression of TIF-IA was estimated on Western blots and the cellular growth rate was measured by calcein-AM staining. Calcein-AM is a non-fluorescent, hydrophobic compound that is rapidly hydrolyzed by intracellular esterases releasing hydrophilic fluorescent calcein. Thus, cellular calcein fluorescence correlates with the amount of viable cells. […] Cells expressing FLAG-tagged wild-type or mutant TIF-IA were stained with FITC-conjugated anti-FLAG antibodies, identified by FACS and cell numbers were calculated by measuring the ratio of stained cells versus an internal standard. […] Conversely, the number of cells expressing TIF-IAS649A was 33% lower than the control. […] Taken together, the results reveal a striking correlation between phosphorylation of TIF-IA at serine 649, cellular rRNA synthetic activity and cell cycle progression.

[3] = S633/S649 mutants, 20 and 40 ng
[4] = S199 and S44 mutants, 30 and 60 ng

| Substance | capability to rescue transcription of extracts from density-arrested cells (Pol I transcription [1]; [3]) | capability to rescue transcription of extracts from density-arrested cells (Pol I transcription [1]; [4]) | interaction with TIF-IB/SL1 (co-precipitated TAFI110) (TIF-IB/SL1) | interaction with Pol I (co-precipitated RPA116) (Pol I) | effect on transcriptional activity of extracts from exponentially growing cells (Pol I transcription [2]) | cellular growth rate by calcein-AM staining (HEK293T cells) |
| --- | --- | --- | --- | --- | --- | --- |
| S633D: TIF-IA point mutant, serine 633 replaced by aspartic acid | less active than wild-type TIF-IA | – | – | – | – | – |
| TIF-IAS199A: the mutant in which S199 was changed to alanine | – | activated Pol I transcription like wild-type TIF-IA | interacted with both Pol I and TIF-IB/SL1 | interacted with both Pol I and TIF-IB/SL1 | – | – |
| TIF-IAS199D: TIF-IA mutant, replacement of S199 by aspartic acid | – | abolished TIF-IA activity | no association of either Pol I or TIF-IB/SL1 could be detected | no association of either Pol I or TIF-IB/SL1 could be detected | – | – |
| TIF-IAS633A: TIF-IA point mutant, serine 633 replaced by alanine | abolished TIF-IA activity | – | – | – | suppressed transcription well below the basal level | – |
| TIF-IAS633AS649A: TIF-IA double mutant, serines 633 and 649 replaced by alanine | abolished TIF-IA activity | – | – | – | – | impaired cell growth |
| TIF-IAS633DS649D: TIF-IA double mutant, serines 633 and 649 replaced by aspartic acid | TIF-IA activity was increased | – | – | – | – | accelerated cell growth |
